The subject of test [1] is polyol increase in the sciatic nerve of galactosemic rats. As to the kind of experiment: Reduction or inhibition of polyol (galactitol) increase in the sciatic nerve of galactosemic rats. As to conditions: for ED50: once a day for eight days, 30% galactose diet, sciatic nerve galactitol. It is filed as in vivo, rat. The procedure:
The compounds according to the invention were tested for their ability to reduce or inhibit polyol increase in the sciatic nerve of galactosemic rats. Rats were fed 30% galactose diet and were administered the compounds at the various doses of 0.4-50 mg/kg once a day for eight days. One day after the final administration (on 9th day), sciatic nerves were removed for galactitol determination. […] The selected control compounds are typical one described in the aforesaid Japanese Unexamined Patent Application Gazette.

A further test concerns the target T1, aldose reductase (Rattus norvegicus, UniProt P07943).
T1 construct: water soluble extracts of rat lenses; from tissue; host or cells: rat lens (water-soluble extract)
The experiment in a line: Inhibition of aldose reductase enzyme activity (Kador and Sharpless method, water soluble extracts of rat lenses). It is filed as biochemical. As to conditions: for IC50: rat lens extract; for inhibition at 0.02 µM: 2.0 × 10^-8 M.

[2] abbreviates: Rattus norvegicus, 192 h, Table 3, read-out: ED50.
Setting [3] is: Rattus norvegicus, 192 h, Table 4, read-out: ED50.
Where [4] appears, read: Table 1, 3.3 × 10^-8 M, read-out: Inhibition (%).
Where [5] appears, read: Table 1, 10^-7 M, read-out: Inhibition (%).
The mark [6] stands for this setting: Table 2, 3.3 × 10^-8 M, read-out: Inhibition (%).
The mark [7] stands for this setting: Table 2, 10^-7 M, read-out: Inhibition (%).
Setting [8] is: Table 2, 10^-8 M, read-out: Inhibition (%).
Setting [9] is: Table 1, 10^-5 M, read-out: Inhibition (%).

Each structure is given as a SMILES string. Read-outs that look alike come from different tables or passages of the source.

A word on the inhibition: it is the share of the control response that was lost under treatment. Turning to `NC(=O)C1CC2(NC(=O)NC2=O)c2cc(F)ccc2O1` (racemic) [A, dl-6-Fluoro-2,3-dihydro-2',5'-dioxo-spiro[4H-1-benzopyran-4,4'-imidazolidine]-2-carboxamide], the ED50 in test [1] (setting [2]) came to 3.3 mg/kg. Further, on aldose reductase, 0.01 µM produced 21% inhibition, the inhibition at 0.033 µM was determined as 51% and the inhibition at 0.1 µM amounted to 80%.
By IC50 is commonly meant the midpoint of a concentration-inhibition curve. A lower IC50 goes with greater potency in that assay. `O=C1NC(=O)C2(CC(CCl)Oc3ccc(F)cc32)N1` (racemic) [D, dl-2-Chloromethyl-6-fluoro-2,3-dihydro-spiro[4H-1-benzopyran-4,4'-imidazolidine]-2',5'-dione]: the ED50 in test [1] (setting [3]) stood at 1.3 mg/kg. The same molecule had an inhibition at 0.33 µM against aldose reductase (Table 1, 3.3 × 10^-7 M) of 78%. The inhibition at 0.033 µM at aldose reductase (setting [4]) was determined as 28%. For the same molecule, the inhibition at 0.1 µM on aldose reductase (setting [5]) turned out to be 53%. Also, the IC50 on aldose reductase (Table 1) came to 90 nM.
Consider `O=C1NC(=O)C2(CC(C(=O)O)Oc3ccc(F)cc32)N1` (racemic) [Example 1, dl-6-fluoro-2,3-dihydro-2',5'-dioxo-spiro[4H-1-benzopyran-4,4'-imidazolidine]-2-carboxylic acid], for which, in test [1] (sciatic nerve of galactosemic rats), the “potency of the major diastereomer vs minor diastereomer in inhibition of polyol increase” value is reported as “higher than that of the minor diastereomer”.
Consider `O=C1NC(=O)C2(CC(CBr)Oc3ccc(F)cc32)N1` (racemic) [G, dl-2-Bromomethyl-6-fluoro-2,3-dihydro-spiro[4H-1-benzopyran-4,4'-imidazolidine]-2',5'-dione], for which, in test [1] (setting [3]), the ED50 was 7.2 mg/kg. The molecule also yielded an inhibition at 0.33 µM at aldose reductase (Table 1, 3.3 × 10^-7 M) of 70%. Besides, the inhibition at 0.033 µM at aldose reductase (setting [4]) is 22%. For the same molecule, at aldose reductase (setting [5]), the inhibition at 0.1 µM came to 42%. Moreover, the IC50 against aldose reductase (Table 1) is 130 nM.
As to `NC(=O)C1CC2(NC(=O)NC2=O)c2cc(F)cc([N+](=O)[O-])c2O1` (racemic) [L, dl-6-Fluoro-2,3-dihydro-8-nitro-2',5'-dioxo-spiro[4H-1-benzopyran-4,4'-imidazolidine]-2-carboxamide], at aldose reductase (setting [6]), the inhibition at 0.033 µM is 50%. The inhibition at 0.1 µM at aldose reductase (setting [7]) came to 88%. Moreover, the inhibition at 0.01 µM on aldose reductase (setting [8]) came out at 15%. This molecule also registered an IC50 on aldose reductase (Table 2) of 31 nM.
Taken in the same sequence, the figures for `NC(=O)C1CC2(NC(=O)NC2=O)c2cc(F)cc(N)c2O1` (racemic) [M, dl-8-Amino-6-fluoro-2,3-dihydro-2',5'-dioxo-spiro[4H-1-benzopyran-4,4'-imidazolidine]-2-carboxamide] were 40%, 74%, 13% and 44 nM.
On aldose reductase (Table 2, 3.3 × 10^-7 M), `O=C1NC(=O)C2(CC(CCl)Oc3c([N+](=O)[O-])cc(F)cc32)N1` (racemic) [N, dl-2-Chloromethyl-6-fluoro-2,3-dihydro-8-nitro-spiro[4H-1-benzopyran-4,4'-imidazolidine]-2',5'-dione] displayed an inhibition at 0.33 µM of 81%. The inhibition at 0.033 µM at aldose reductase (setting [6]) amounted to 30%. Besides, the inhibition at 0.1 µM on aldose reductase (setting [7]) was found to be 59%. The molecule further returned an IC50 on aldose reductase (Table 2) of 76 nM.
As for `Nc1cc(F)cc2c1OC(CCl)CC21NC(=O)NC1=O` (racemic) [O, dl-8-Amino-2-chloromethyl-6-fluoro-2,3-dihydro-spiro[4H-1-benzopyran-4,4'-imidazolidine]-2',5'-dione], on aldose reductase (Table 2, 3.3 × 10^-7 M), the inhibition at 0.33 µM came to 68%. Moreover, testing at 1 µM against aldose reductase (Table 2, 10^-6 M) gave an inhibition of 85%. On aldose reductase (setting [7]), the inhibition at 0.1 µM was 38%. In addition, at aldose reductase (Table 2), the midpoint of inhibition, the IC50, lay at 170 nM.
Take `NC(=O)[C@H]1CC2(NC(=O)NC2=O)c2cc(F)ccc2O1` (stereo partly drawn) [B, d-6-Fluoro-2,3-dihydro-2',5'-dioxo-spiro[4H-1-benzopyran-4,4'-imidazolidine]-2-carboxamide]: the ED50 in test [1] (setting [2]) was found to be 1.3 mg/kg. On aldose reductase, the inhibition at 0.01 µM is 39%, the inhibition at 0.033 µM came out at 80% and the inhibition at 0.1 µM turned out to be 93%.
For the molecule `NC(=O)C1CC2(NC(=O)NC2=O)c2cc(F)ccc2O1` (stereo not drawn) [C, 1-6-Fluoro-2,3-dihydro-2',5'-dioxo-spiro[4H-1-benzopyran-4,4'-imidazolidine]-2-carboxamide], at 10 µM the inhibition against aldose reductase was 27%.
`O=C1NC(=O)C2(CC(CCl)Oc3ccc(F)cc32)N1` (stereo not drawn) [Compound E, d-2-Chloromethyl-6-fluoro-2,3-dihydro-spiro[4H-1-benzopyran-4,4'-imidazolidine]-2',5'-dione]: the ED50 in test [1] (setting [3]) stood at 0.6 mg/kg. The inhibition at 0.033 µM on aldose reductase (setting [4]) is 38%. In addition, the inhibition at 0.1 µM at aldose reductase (setting [5]) worked out at 66%. Besides, on aldose reductase (Table 1, 10^-8 M, read-out: Inhibition (%)), the inhibition at 0.01 µM stood at 21%. The IC50 against aldose reductase (Table 1) came out at 47 nM.
As for `O=C1NC(=O)C2(CC(CCl)Oc3ccc(F)cc32)N1` (stereo not drawn) [F, 1-2-Chloromethyl-6-fluoro-2,3-dihydro-spiro[4H-1-benzopyran-4,4'-imidazolidine]-2',5'-dione], on aldose reductase (Table 1, 3.3 × 10^-6), the inhibition at 3.3 µM came to 52%. Moreover, at aldose reductase (setting [9]), the inhibition at 10 µM is 74%. Moreover, the inhibition at 1 µM on aldose reductase (Table 1, 10^-6 M) was determined as 28%. In addition, on aldose reductase (Table 1), the half-inhibitory concentration (IC50) amounted to 2900 nM.
With `O=C1NC(=O)C2(CC(CBr)Oc3ccc(F)cc32)N1` (stereo not drawn) [H, d-2-Bromomethyl-6-fluoro-2,3-dihydro-spiro[4H-1-benzopyran-4,4'-imidazolidine]-2',5'-dione], the ED50 in test [1] (setting [3]) was determined as 2.2 mg/kg. This molecule also displayed an inhibition at 0.33 µM against aldose reductase (Table 1, 3.3 × 10^-7 M) of 82%. Further, the inhibition at 0.033 µM at aldose reductase (setting [4]) was determined as 35%. At aldose reductase (setting [5]), the inhibition at 0.1 µM was 59%. This molecule returned a concentration for half-maximal inhibition (IC50) at aldose reductase (Table 1) of 68 nM.
The molecule `O=C1NC(=O)C2(CC(CBr)Oc3ccc(F)cc32)N1` (stereo not drawn) [I, 1-2-Bromomethyl-6-fluoro-2,3-dihydro-spiro[4H-1-benzopyran-4,4'-imidazolidine]-2',5'-dione] displayed an inhibition at 3.3 µM against aldose reductase (Table 1, 3.3 × 10^-6) of 54%. Further, on aldose reductase (setting [9]), the inhibition at 10 µM amounted to 75%. This molecule yielded an inhibition at 1 µM on aldose reductase (Table 1, 10^-6 M) of 31%. The molecule also returned an IC50 at aldose reductase (Table 1) of 2700 nM.
Consider `NC(=O)[C@H]1CC2(NC(=O)NC2=O)c2cc(F)cc([N+](=O)[O-])c2O1` (stereo partly drawn) [J, d-6-Fluoro-2,3-dihydro-8-nitro-2',5'-dioxo-spiro[4H-1-benzopyran-4,4'-imidazolidine]-2-carboxamide], for which, on aldose reductase (Table 2), the inhibition at 0.02 µM was determined as 69% and the concentration for half-maximal inhibition (IC50) stood at 14 nM. The inhibition at 0.033 µM on aldose reductase (setting [6]) was 82%. Besides, the inhibition at 0.01 µM at aldose reductase (setting [8]) is 35%.
As to `NC(=O)[C@H]1CC2(NC(=O)NC2=O)c2cc(F)cc(N)c2O1` (stereo partly drawn) [K, d-8-Amino-6-fluoro-2,3-dihydro-2',5'-dioxo-spiro[4H-1-benzopyran-4,4'-imidazolidine]-2-carboxamide], the inhibition at 0.033 µM at aldose reductase (setting [6]) came out at 60%. Moreover, the inhibition at 0.1 µM at aldose reductase (setting [7]) stood at 70%. Further, at aldose reductase (setting [8]), the inhibition at 0.01 µM worked out at 27%. At aldose reductase (Table 2), this molecule came in with an IC50 of 25 nM.
As to `CC(=O)Nc1cc(F)cc2c1O[C@@H](C(N)=O)CC21NC(=O)NC1=O` (stereo partly drawn) [P, d-8-Acetamido-6-fluoro-2,3-dihydro-2',5'-dioxo-spiro[4H-1-benzopyran-4,4'-imidazolidine]-2-carboxamide], at aldose reductase (Table 2), the inhibition at 0.02 µM was 56% and the IC50 stood at 18 nM. In addition, the inhibition at 0.033 µM on aldose reductase (setting [6]) was 69%. Moreover, the inhibition at 0.01 µM at aldose reductase (setting [8]) stood at 30%.
With `O=C1NC(=O)C2(CCOc3ccc(F)cc32)N1` (stereo not drawn) [Q, d1-6-Fluoro-2,3-dihydro-spiro[4H-1-benzopyran-4,4'-imidazolidine]-2',5'-dione, reference compound], the ED50 stood at 31.5 mg/kg in test [1] (setting [3]) and 36.6 mg/kg in test [1] (Table 3). On aldose reductase (Table 1, 3.3 × 10^-6), this molecule yielded an inhibition at 3.3 µM of 85%. 0.33 µM produced 46% inhibition against aldose reductase (Table 1, 3.3 × 10^-7 M). Besides, the inhibition at 0.033 µM at aldose reductase (setting [4]) stood at 10%. Further, on aldose reductase (Table 1, 10^-6 M), the inhibition at 1 µM was determined as 71%. Also, the inhibition at 0.1 µM on aldose reductase (setting [5]) stood at 17%.
In the case of `O=C1NC(=O)C2(CCOc3ccc(F)cc32)N1` (stereo not drawn) [R, d-6-Fluoro-2,3-dihydro-spiro[4H-1-benzopyran-4,4'-imidazolidine]-2',5'-dione, reference compound], in test [1] (Table 3), the ED50 is listed as 18.0 mg/kg. For the same molecule, the “Inhibition (%)” value was 88% at aldose reductase (Table 1, 3.3 × 10^-6); 61% at aldose reductase (Table 1, 3.3 × 10^-7 M); 15% on aldose reductase (Table 1, 3.3 × 10^-8 M); 80% at aldose reductase (Table 1, 10^-6 M); 34% on aldose reductase (Table 1, 10^-7 M). Testing at 0.33 µM on aldose reductase (Table 2, 3.3 × 10^-7 M) gave an inhibition of 59%. Moreover, the inhibition at 0.033 µM on aldose reductase (setting [6]) came out at 24%. On aldose reductase (Table 2, 10^-6 M), this molecule registered an inhibition at 1 µM of 76%. The inhibition at 0.1 µM at aldose reductase (setting [7]) is 29%.
Consider `O=C1NC(=O)C2(CCOc3ccc(F)cc32)N1` (stereo not drawn) [S, 1-6-Fluoro-2,3-dihydro-spiro[4H-1-benzopyran-4,4'-imidazolidine]-2',5'-dione, reference compound], for which the inhibition at 10 µM on aldose reductase (setting [9]) worked out at 32%.
